The values below come from patent US9056886B2, “Guanosine-rich modified oligonucleotides and antiproliferative activity thereof” (APTABIO THERAPEUTICS INC., priority 2009, dated 2015).

[5FU] = 5-fluoro-uracil base (5-fluoro-2'-deoxyuridine)

Data set [1] concerns PC-3 cell line (prostate cancer cell). Kind of data set: Cell apoptosis (XTT method) in PC-3 cells. The note with it: for IC50: PC3 (Prostate Cancer Cells), cultured six days, XTT. The format is cell-based. How it is done:
(§1) Each oligonucleotide was diluted in 10 mM Tris-HCl (pH 7.4) to a final concentration of 100 μM. The diluted solution was placed at 94° C. for 5 minutes and then quickly placed them on ice and left therein for 5 minutes. The resultant was added with 2M KCl to a final concentration of 50 mM, left at 60° C. for 3 hours and then slowly cooled down to room temperature.
(§2) One day before the experiment, 190 μL of culture, wherein PC-3 cell line(prostate cancer cell) was suspended at a concentration of 10^3-10^4/mL, was inoculated respectively into each well of a 96 well plate. The next day, 10 μL of the oligonucleotide solution prepared in Example 1 was added and cultured for six days. Six days after the inoculation, cell apoptosis rate measured by means of XTT method [JBC 1999, 26369].

Data set [2] relates to MCF7-DX (Breast Cancer Cells), a drug-resistance cell line. Kind of data set: Cell apoptosis (XTT method) in MCF7-DX cells. In kind it is cell-based. How it is done: [Worded in the source for another cell line; this cell line is reported under the same test.] as §1, §2
(§3) As a result, it was confirmed that the cell apoptosis rate of APT-2001, APT-2002 and APT-2003 (the novel modified oligonucleotides of the present invention), was 3-10 times higher than those of APT-4001 (positive control) and APT-4002 (negative control) as measured in terms of IC50 or IC90 (FIG. 2). […] In addition, the cell apoptotic activity of the oligonucleotides, prepared according to the present invention over the K562 CML (chronic myeloid leukemia), MV-4-11 AML (acute leukemia) cells, were also verified.
(Tetrazolium dyes change colour on reduction, which living cells bring about.)

Data set [3] relates to HCT116 (Rectal Cancer Cells). Nature of the data set: Cell apoptosis (XTT method) in HCT116 cells. The format is cell-based. The method, then:
[Worded in the source for another cell line; this cell line is reported under the same test.] as §1, §2, §3

In data set [4] the test system is A549 (Non-small Cell Carcinoma Cells). Kind of data set: Cell apoptosis (XTT method) in A549 cells. The format is cell-based.
For data set [5], the system named is A498 (Kidney Cancer Cells). Kind of data set: Cell apoptosis (XTT method) in A498 cells. In kind it is cell-based.
The subject of data set [6] is MCF7 (Breast Cancer Cells). Nature of the data set: Cell apoptosis (XTT method) in MCF7 cells. In kind it is cell-based. The method, then: [Worded in the source for another cell line; this cell line is reported under the same test.] as §1, §2, §3
A further data set relates to mice. Nature of the data set: Toxicity test in mice. In kind it is in vivo. The note with it: 1 g/kg administered, 10 mice/group, observed for the next 7 days. The method, then:
Toxicity test was performed on the active ingredient of the present invention as follows.
Each of APT-2001, APT-2002 and APT-2003 was dissolved in dimethylsulfoxide (DMSO), diluted with water and then administered to mice (10 mice/group) in the amount of 1 g/kg.

For the substance “APT-4002: Negative control, TTTCCTCCTCCTCCTTCTCCTCCTCCTCC (SEQ. ID. NO. 49); thymidine, 2′-deoxycytidine (DNA, backbone not given here) [reference compound]”, the IC50 in data set [1], in data set [2], in data set [3], in data set [4] and in data set [5] was > 50 µM each time.

As to “APT-2002: NNNGGTGGTGGTGGTTGTGGTGGTGGTGG (SEQ. ID. NO. 2); N=5-F-deoxyuridine, G=2-deoxy-guanosine, H=thymidine (DNA UUUGGTGGTGGTGGTTGTGGTGGTGGTGG; DNA, [5FU] at 1, 2, 3, backbone not given here)”, the IC50 was 2.6 µM in data set [1]; 0.6 µM in data set [2]; 8.9 µM in data set [6]; 2.1 µM in data set [3]; 5.2 µM in data set [4]; < 0.1 µM in data set [5]. The “cell apoptotic activity compared to APT-4001 (positive control)” value in data set [1] (even at a smaller amount than APT-4001, FIG. 3) was “superior cell apoptotic activity”. Besides, the survival of mice result in the data set with mice is listed as “all mice survived”.

Consider “APT-2020: GGTGGTGGNNNNGGTGGTGG (SEQ. ID. NO. 18); N=5-F-deoxyuridine, G=2-deoxy-guanosine, H=thymidine (DNA GGTGGTGGUUUUGGTGGTGG; DNA, [5FU] at 9, 10, 11, 12, backbone not given here)”, for which the IC50 in data set [1] worked out at 0.16 µM; in data set [2], 0.89 µM.

In general, IC50 refers to the concentration that inhibits the measured activity by half. Low values mean greater potency, high ones weaker potency.
